Test results published in US8163702B2, “Treatment of melanoma” (SciClone Pharmaceuticals, Inc., priority 2006, dated 2012).

Tested on: murine B16 melanoma
Assay: Antitumor effect in murine B16 melanoma model, tumor size and tumor weight (Example 2)
Format: in vivo, C57BL/6 mice
Procedure: As per aseptic tissue culture procedures, one vial of B16 melanoma cells (supplied by Cell Culture Center of CAMS) was thawed and centrifuged at 1000 rpm, 20-25° C. for 5 minutes. The cell pellets were suspended in 0.1-0.5 mL normal saline (NS) and subcutaneously injected into the right axilla of each mouse (approximately 1×10^6 cells/mouse). When the tumor diameter was 1 cm approximately (measured by vernier caliper), the animals were euthanized with CO2 asphyxiation and the tumor was excised. Tumor cells were suspended in normal saline as previously described and the cell adaptation cycle was repeated once.
On Day 0, 1×10^6 B16 cells in a volume of 0.1 mL normal saline were subcutaneously injected into the right axillary area of the mouse. The day of tumor inoculation was defined as Day 0.
Dosing was initiated on Day 1.
Observations were recorded daily for mortality and moribundity. […] The tumors were excised, separated, and weighed.
Tumor volume was calculated using the following formula: Tumor Volume=Length×Width×Width/2 Tumor volume inhibition rate (IR) was calculated according to the formula: IR(TV)=(TVvehicle−TVdrug treated)/TVvehicle×100% TV is the tumor volume on the day of measurement.
The antitumor effect of the test article was also evaluated by tumor weight. The tumor weight of each mouse was recorded after euthanasia, and the inhibition rate of tumor weight was calculated according to the formula: IR(TW)=(Tumor weightvehicle−Tumor weightdrug treated)/Tumor weightvehicle×100%

[1] = Day 9, SCV-07 0.01 mg/kg/day sc
[2] = Day 9, mouse F1, SCV-07 0.1 mg/kg sc
[3] = Day 9, mouse F1, SCV-07 5.0 mg/kg sc
[4] = Day 9, mouse F2, SCV-07 0.01 mg/kg sc
[5] = Day 9, mouse F2, SCV-07 0.1 mg/kg sc
[6] = Day 9, mouse F2, SCV-07 1.0 mg/kg sc
[7] = Day 9, mouse F2, SCV-07 5.0 mg/kg sc
[8] = Day 9, mouse F3, SCV-07 0.1 mg/kg sc
[9] = Day 9, mouse F3, SCV-07 1.0 mg/kg sc
[10] = Day 9, mouse F4, SCV-07 0.01 mg/kg sc
[11] = Day 9, mouse F4, SCV-07 0.1 mg/kg sc
[12] = Day 9, mouse F4, SCV-07 1.0 mg/kg sc
[13] = Day 9, mouse F4, SCV-07 5.0 mg/kg sc
[14] = Day 9, mouse F5, SCV-07 0.01 mg/kg sc
[15] = Day 9, mouse F5, SCV-07 0.1 mg/kg sc
[16] = Day 9, mouse F5, SCV-07 1.0 mg/kg sc
[17] = Day 9, mouse F5, SCV-07 5.0 mg/kg sc
[18] = Day 9, mouse M1, SCV-07 0.01 mg/kg sc
[19] = Day 9, mouse M1, SCV-07 0.1 mg/kg sc
[20] = Day 9, mouse M1, SCV-07 1.0 mg/kg sc
[21] = Day 9, mouse M1, SCV-07 5.0 mg/kg sc
[22] = Day 9, mouse M2, SCV-07 0.01 mg/kg sc
[23] = Day 9, mouse M2, SCV-07 1.0 mg/kg sc
[24] = Day 9, mouse M3, SCV-07 0.01 mg/kg sc
[25] = Day 9, mouse M3, SCV-07 1.0 mg/kg sc
[26] = Day 9, mouse M3, SCV-07 5.0 mg/kg sc
[27] = Day 9, mouse M4, SCV-07 0.1 mg/kg sc
[28] = Day 9, mouse M4, SCV-07 1.0 mg/kg sc
[29] = Day 9, mouse M4, SCV-07 5.0 mg/kg sc
[30] = Day 9, mouse M5, SCV-07 0.01 mg/kg sc
[31] = Day 9, mouse M5, SCV-07 0.1 mg/kg sc
[32] = Day 12, SCV-07 0.01 mg/kg/day sc
[33] = Day 12, SCV-07 0.1 mg/kg/day sc
[34] = Day 12, SCV-07 1.0 mg/kg/day sc
[35] = Day 12, SCV-07 5.0 mg/kg/day sc
[36] = Day 12, mouse F1, SCV-07 0.01 mg/kg sc
[37] = Day 12, mouse F1, SCV-07 0.1 mg/kg sc
[38] = Day 12, mouse F1, SCV-07 1.0 mg/kg sc
[39] = Day 12, mouse F1, SCV-07 5.0 mg/kg sc
[40] = Day 12, mouse F2, SCV-07 0.01 mg/kg sc
[41] = Day 12, mouse F2, SCV-07 0.1 mg/kg sc
[42] = Day 12, mouse F2, SCV-07 1.0 mg/kg sc

`N[C@H](CCC(=O)N[C@@H](Cc1c[nH]c2ccccc12)C(=O)O)C(=O)O` [SCV-07, γ-D-glutamyl-L-tryptophan] was tested, and the “Tumor Volume (Mean ± SD)” value (Day 3, SCV-07 0.01 mg/kg/day sc, not measurable defined as 0) was 0 cm^3, the “Tumor Volume (Mean ± SD)” value (Day 3, SCV-07 0.1 mg/kg/day sc, not measurable defined as 0) was 0 cm^3 and the “Tumor Volume (Mean ± SD)” value (Day 3, SCV-07 1.0 mg/kg/day sc, not measurable defined as 0) was 0 cm^3. For the same compound, the “Tumor Volume (Mean ± SD)” value (Day 3, SCV-07 5.0 mg/kg/day sc, not measurable defined as 0) was 0 cm^3, the “Tumor Volume (Mean ± SD)” value (Day 6, SCV-07 0.01 mg/kg/day sc, not measurable defined as 0) was 0 cm^3 and the “Tumor Volume (Mean ± SD)” value (Day 6, SCV-07 0.1 mg/kg/day sc, not measurable defined as 0) was 0 cm^3. The “Tumor Volume (Mean ± SD)” value (Day 6, SCV-07 1.0 mg/kg/day sc, not measurable defined as 0) was 0 cm^3, the “Tumor Volume (Mean ± SD)” value (Day 6, SCV-07 5.0 mg/kg/day sc, not measurable defined as 0) was 0 cm^3 and the “IR (tumor volume inhibition rate)” value [1] was −4.3%. The “Tumor Volume (Mean ± SD)” value [1] was 0.045 ± 0.042 cm^3, the “IR (tumor volume inhibition rate)” value (Day 9, SCV-07 0.1 mg/kg/day sc) was 11.5% and the “Tumor Volume (Mean ± SD)” value (Day 9, SCV-07 0.1 mg/kg/day sc) was 0.039 ± 0.038 cm^3. For the same compound, the “IR (tumor volume inhibition rate)” value (Day 9, SCV-07 1.0 mg/kg/day sc) was 19.7%, the “Tumor Volume (Mean ± SD)” value (Day 9, SCV-07 1.0 mg/kg/day sc) was 0.035 ± 0.036 cm^3 and the “IR (tumor volume inhibition rate)” value (Day 9, SCV-07 5.0 mg/kg/day sc) was −11.0%. The “Tumor Volume (Mean ± SD)” value (Day 9, SCV-07 5.0 mg/kg/day sc) was 0.048 ± 0.036 cm^3, the “Tumor measurements L” value [2] was 0.5 cm and the “Tumor measurements W” value [2] was 0.5 cm. The Tumor volumes [2] was 0.06 cm^3, the “Tumor measurements L” value [3] was 0.5 cm and the “Tumor measurements W” value [3] was 0.5 cm. The Tumor volumes [3] was 0.06 cm^3, the “Tumor measurements L” value [4] was 0.5 cm and the “Tumor measurements W” value [4] was 0.5 cm. The Tumor volumes [4] was 0.06 cm^3, the “Tumor measurements L” value [5] was 0.5 cm and the “Tumor measurements W” value [5] was 0.5 cm. The Tumor volumes [5] was 0.06 cm^3, the “Tumor measurements L” value [6] was 0.5 cm and the “Tumor measurements W” value [6] was 0.5 cm. The Tumor volumes [6] was 0.06 cm^3, the “Tumor measurements L” value [7] was 0.5 cm and the “Tumor measurements W” value [7] was 0.5 cm. The Tumor volumes [7] was 0.06 cm^3, the “Tumor measurements L” value [8] was 0.5 cm and the “Tumor measurements W” value [8] was 0.5 cm. The Tumor volumes [8] was 0.06 cm^3, the “Tumor measurements L” value [9] was 0.6 cm and the “Tumor measurements W” value [9] was 0.6 cm. The Tumor volumes [9] was 0.11 cm^3, the “Tumor measurements L” value [10] was 0.5 cm and the “Tumor measurements W” value [10] was 0.5 cm. The Tumor volumes [10] was 0.06 cm^3, the “Tumor measurements L” value [11] was 0.6 cm and the “Tumor measurements W” value [11] was 0.6 cm. The Tumor volumes [11] was 0.11 cm^3, the “Tumor measurements L” value [12] was 0.3 cm and the “Tumor measurements W” value [12] was 0.3 cm. For the same compound, the Tumor volumes [12] was 0.01 cm^3, the “Tumor measurements L” value [13] was 0.6 cm and the “Tumor measurements W” value [13] was 0.6 cm. For the same compound, the Tumor volumes [13] was 0.11 cm^3, the “Tumor measurements L” value [14] was 0.6 cm and the “Tumor measurements W” value [14] was 0.6 cm. For the same compound, the Tumor volumes [14] was 0.11 cm^3, the “Tumor measurements L” value [15] was 0 cm and the “Tumor measurements W” value [15] was 0 cm. The Tumor volumes [15] was 0.00 cm^3, the “Tumor measurements L” value [16] was 0.5 cm and the “Tumor measurements W” value [16] was 0.5 cm. For the same compound, the Tumor volumes [16] was 0.06 cm^3, the “Tumor measurements L” value [17] was 0.5 cm and the “Tumor measurements W” value [17] was 0.5 cm. For the same compound, the Tumor volumes [17] was 0.06 cm^3, the “Tumor measurements L” value [18] was 0.6 cm and the “Tumor measurements W” value [18] was 0.6 cm. For the same compound, the Tumor volumes [18] was 0.11 cm^3, the “Tumor measurements L” value [19] was 0.3 cm and the “Tumor measurements W” value [19] was 0.3 cm. For the same compound, the Tumor volumes [19] was 0.01 cm^3, the “Tumor measurements L” value [20] was 0.3 cm and the “Tumor measurements W” value [20] was 0.3 cm. For the same compound, the Tumor volumes [20] was 0.01 cm^3, the “Tumor measurements L” value [21] was 0.5 cm and the “Tumor measurements W” value [21] was 0.5 cm. For the same compound, the Tumor volumes [21] was 0.06 cm^3, the “Tumor measurements L” value [22] was 0.4 cm and the “Tumor measurements W” value [22] was 0.4 cm. For the same compound, the Tumor volumes [22] was 0.03 cm^3, the Tumor volumes (Day 9, mouse M2, SCV-07 0.1 mg/kg sc) was 0.00 cm^3 and the “Tumor measurements L” value [23] was 0.5 cm. The “Tumor measurements W” value [23] was 0.5 cm, the Tumor volumes [23] was 0.06 cm^3 and the “Tumor measurements L” value [24] was 0.4 cm. The “Tumor measurements W” value [24] was 0.3 cm, the Tumor volumes [24] was 0.02 cm^3 and the Tumor volumes (Day 9, mouse M3, SCV-07 0.1 mg/kg sc) was 0.00 cm^3. The “Tumor measurements L” value [25] was 0.3 cm, the “Tumor measurements W” value [25] was 0.3 cm and the Tumor volumes [25] was 0.01 cm^3. The “Tumor measurements L” value [26] was 0.5 cm, the “Tumor measurements W” value [26] was 0.5 cm and the Tumor volumes [26] was 0.06 cm^3. The “Tumor measurements L” value [27] was 0.3 cm, the “Tumor measurements W” value [27] was 0.3 cm and the Tumor volumes [27] was 0.01 cm^3. The “Tumor measurements L” value [28] was 0.3 cm, the “Tumor measurements W” value [28] was 0.3 cm and the Tumor volumes [28] was 0.01 cm^3. For the same compound, the “Tumor measurements L” value [29] was 0.5 cm, the “Tumor measurements W” value [29] was 0.5 cm and the Tumor volumes [29] was 0.06 cm^3. For the same compound, the “Tumor measurements L” value [30] was 0.5 cm, the “Tumor measurements W” value [30] was 0.5 cm and the Tumor volumes [30] was 0.06 cm^3. The “Tumor measurements L” value [31] was 0.5 cm, the “Tumor measurements W” value [31] was 0.5 cm and the Tumor volumes [31] was 0.06 cm^3. The “IR (tumor volume inhibition rate)” value [32] was 51.2%, the “Tumor Volume (Mean ± SD)” value [32] was 0.368 ± 0.223 cm^3 and the “IR (tumor volume inhibition rate)” value [33] was 37.7%. The “Tumor Volume (Mean ± SD)” value [33] was 0.469 ± 0.199 cm^3, the “IR (tumor volume inhibition rate)” value [34] was 61.3% and the “Tumor Volume (Mean ± SD)” value [34] was 0.292 ± 0.169 cm^3. For the same compound, the “IR (tumor volume inhibition rate)” value [35] was 54.9%, the “Tumor Volume (Mean ± SD)” value [35] was 0.340 ± 0.195 cm^3 and the “Tumor measurements L” value [36] was 0.1 cm. For the same compound, the “Tumor measurements W” value [36] was 0.1 cm, the Tumor volumes [36] was 5E−04 cm^3 and the “Tumor measurements L” value [37] was 1.0 cm. For the same compound, the “Tumor measurements W” value [37] was 1.0 cm, the Tumor volumes [37] was 0.50 cm^3 and the “Tumor measurements L” value [38] was 1.0 cm. For the same compound, the “Tumor measurements W” value [38] was 0.7 cm, the Tumor volumes [38] was 0.25 cm^3 and the “Tumor measurements L” value [39] was 1.0 cm. The “Tumor measurements W” value [39] was 0.9 cm, the Tumor volumes [39] was 0.41 cm^3 and the “Tumor measurements L” value [40] was 1.0 cm. For the same compound, the “Tumor measurements W” value [40] was 0.7 cm, the Tumor volumes [40] was 0.25 cm^3 and the “Tumor measurements L” value [41] was 1.0 cm. For the same compound, the “Tumor measurements W” value [41] was 1.0 cm, the Tumor volumes [41] was 0.50 cm^3 and the “Tumor measurements L” value [42] was 0.9 cm. The “Tumor measurements W” value [42] was 0.9 cm and the Tumor volumes [42] was 0.36 cm^3.
